The results in this text go back to patent publication US6838084B1, “Cytotoxic T-cell epitopes of the papilloma virus l1-protein and use thereof in diagnosis and therapy” (priority 1999, dated 2005).

Assay type in all cases: cell-based, human
The subject of test [1] is CVLP-stimulated T cells. The test can be described thus: Restimulation of CVLP-stimulated T cells with peptide pools, HLA A1-positive donor. The note with it: common to pools E and 6. The method, then:
The name of the particular peptide pool with which the PBMCs were loaded is listed from left to right. “None” represents PBMCs which were incubated only with buffer.
Human T cells (4×10^5) of an HLA A1-positive donor were stimulated with HPV16 L1ΔC·E71-55 CVLPs at 37° C. for 6 weeks with weekly addition of 1 μg/ml CVLPs and 10^5 antigen-presenting cells (irradiated PMBCs), and harvested.
(§1) The 20 mer peptides 1 to 51 were combined in peptide pools A to H and 1 to 7 according to the matrix
(§2) The T cells of an HLA A1-positive donor were then restimulated in 100 μl of medium at 37° C. with the peptide pools in the presence of 10 IU/ml IL2. In this connection, such amounts of peptide pools were used that for each individual peptide 1 μg/ml was added. Cells incubated only with buffer served as a negative control.
(§3) After one hour, 1 μl of Golgi Plug was added. The cells were incubated at 37° C. for a further 5 hours. The cells were then fixed and permeabilized, and stained with α-hum CD8/PE, with α-hum CD4/Cychrome and with α-hum γ-interferon/FITC. The cells were examined in a FACScan calibur with respect to their label and the data were analyzed with the aid of Cellquest software.

The test system of test [2] is CVLP-stimulated T cells. The test can be described thus: Restimulation of CVLP-stimulated T cells with peptide pools, HLA A24-positive donor. To be noted: common to pools A and 2. The method, then: The name of the particular peptide pool with which the BLCLs were loaded is listed from left to right. “None” represents BLCLs which were incubated only with buffer.
as §1, §2, §3
Furthermore, the T cells of an HLA A24-positive donor were restimulated with the peptide pools as above and analyzed.

For test [3], the system named is BLCL cells of an HLA A24-positive donor. The test can be described thus: Lysis of BLCL cells loaded with peptide 9 (51Cr release). The protocol:
The target cells were lysed by T cells stimulated with peptides 1-43 (=effector cells) . […] The % values were calculated according to the formula given in Example 7.
BLCL cells of an HLA A24-positive donor were incubated with […] at 37° C. for one hour, washed three times with medium and divided into 2 aliquots. 10 μg/ml of peptide 9 were added to one aliquot of the cells, and the other aliquot served as a negative control in the absence of a peptide. Subsequently, in each case 2000 cells (=target cells). were added to increasing amounts of T cells (=effector cells) in a total volume of 150 μl. The T cells had been stimulated previously over 5 weeks with a mixture of 43 peptides (peptides 1-43, 1 μg/ml each). Reaction mixtures for spontaneous and maximum cell lysis were set up in parallel. For spontaneous lysis, target cells which were incubated in medium were used, and for maximum lysis target cells which were incubated with 0.5% Triton were used. The mixtures were incubated at 37° C. for 5 h. 50 μl of mixture supernatant were applied to Luma plates and dried at room temperature overnight. On the following morning, the amount of radioactive ^51Cr was determined with the aid of a Canberra-Packerd B-plate counter (counts) and compared to the maximal lysed cells of the Triton mixture. The percentage of specific lysis was determined according to the formula: x=100·(counts−spontaneous counts)/(maximal counts−spontaneous counts).

Take “MLDLQPETTDLYCYEQLNDS (Human papillomavirus type 16) [Peptide 45]”: the “peptide responsible for restimulation, deduced from pool matrix” value in test [1] is “in all probability responsible for restimulation of CVLP-stimulated T cells”.

For SFYNPDTQRLVWACVGVEVG [Peptide 9], the “peptide responsible for restimulation, deduced from pool matrix” value in test [2] was “in all probability responsible for restimulation of CVLP-stimulated T cells”. The “lysis of peptide-loaded BLCL target cells by T cells (51Cr release)” value in test [3] (10 μg/ml peptide, effector T cells stimulated 5 weeks with peptides 1-43, 5 h, FIG. 8) is on record as “lyse BLCL cells loaded with peptide 9 effectively”. Besides, in test [3] (Table 2), the “Epitop-Information (HLA restriction)” value is given as “HLA A24 restr” and the “Epitop-Information (epitope type)” value is “cytotoxic epitope”. In addition, the epitope classification result in test [3] (conclusion from FIG. 8) is recorded as “HLA A24-restricted cytotoxic T-cell epitope”.
